Molecular target: Pol Theta (1-894) (Homo sapiens (Human), UniProt O75417)
Assay: Biochemical Pol Theta (1-894) ATPase IC50 assay (ADP-Glo, ssDNA substrate)
Details: ADP-Glo assay with ssDNA substrate, room temperature
Outline: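 His-tagged human Pol Theta 1-894 from Sf9 baculovirus cells, 2× enzyme solution at 12.5 nM, assayed with ssDNA substrate at room temperature in 40 mM Tris pH 7.5, 20 mM MgCl2, 1 mM DTT, 0.01% BSA, 0.05% Tween-20.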

Sequence of Pol Theta (1-894) (O75417 1-894): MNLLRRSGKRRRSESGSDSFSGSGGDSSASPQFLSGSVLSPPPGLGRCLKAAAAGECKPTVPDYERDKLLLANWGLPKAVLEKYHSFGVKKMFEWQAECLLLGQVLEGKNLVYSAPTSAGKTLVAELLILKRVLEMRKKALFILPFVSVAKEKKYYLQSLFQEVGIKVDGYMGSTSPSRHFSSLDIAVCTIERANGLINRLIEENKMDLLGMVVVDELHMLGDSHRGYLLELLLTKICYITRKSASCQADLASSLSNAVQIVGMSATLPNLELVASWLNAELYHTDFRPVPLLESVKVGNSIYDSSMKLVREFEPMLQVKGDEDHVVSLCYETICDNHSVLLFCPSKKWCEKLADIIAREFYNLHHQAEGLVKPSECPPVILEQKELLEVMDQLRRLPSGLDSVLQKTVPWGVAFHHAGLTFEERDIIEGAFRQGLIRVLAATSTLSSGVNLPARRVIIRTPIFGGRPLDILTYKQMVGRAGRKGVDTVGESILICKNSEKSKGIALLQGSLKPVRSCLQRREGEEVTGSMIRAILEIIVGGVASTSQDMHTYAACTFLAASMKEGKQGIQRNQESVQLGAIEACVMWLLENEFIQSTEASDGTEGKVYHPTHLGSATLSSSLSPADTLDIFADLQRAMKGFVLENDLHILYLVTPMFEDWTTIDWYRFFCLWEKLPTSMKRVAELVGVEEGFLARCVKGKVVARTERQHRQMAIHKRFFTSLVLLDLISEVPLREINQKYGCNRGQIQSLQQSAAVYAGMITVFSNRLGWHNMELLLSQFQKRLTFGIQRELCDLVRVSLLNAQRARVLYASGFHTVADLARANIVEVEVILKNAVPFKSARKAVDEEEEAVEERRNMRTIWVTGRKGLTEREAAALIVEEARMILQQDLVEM

SMILES | IC50 [nM]
COc1ccc(C#N)cc1-c1cc(C)ncc1C(=O)Nc1nc2ccc(C3CCOC3)nc2s1 (stereo not drawn) [Example 127, 4-(5-cyano-2-methoxyphenyl)-6-methyl-N-(5-(tetrahydrofuran-3-yl)thiazolo[5,4-b]pyridin-2-yl)nicotinamide] | 35
COCCOc1ccc2nc(NC(=O)c3cnc(C)cc3-c3cc(C#N)ccc3OC)sc2n1 [Example 77, 4-(5-cyano-2-methoxyphenyl)-N-(5-(2-methoxyethoxy)thiazolo[5,4-b]pyridin-2-yl)-6-methylnicotinamide] | 50
COc1ccc(C#N)cc1-c1cc(C)ncc1C(=O)Nc1nc2ccc(-c3ccc(OCCO)cc3)nc2s1 [Example 122, 4-(5-cyano-2-methoxyphenyl)-N-(5-(4-(2-hydroxyethoxy)phenyl)thiazolo[5,4-b]pyridin-2-yl)-6-methylnicotinamide] | 14
COc1ccccc1-c1cnncc1C(=O)Nc1nc2ccc(OC3CCCC3)nc2s1 [Example 114, N-(5-(cyclopentyloxy)thiazolo[5,4-b]pyridin-2-yl)-5-(2-methoxyphenyl)pyridazine-4-carboxamide] | 99
COc1cccc(Cl)c1-c1cc(C)ncc1C(=O)Nc1nc2ccc(-c3ccc(C#N)cc3)nc2s1 [Example 146, 4-(2-chloro-6-methoxyphenyl)-N-(5-(4-cyanophenyl)thiazolo[5,4-b]pyridin-2-yl)-6-methylnicotinamide] | 22
COc1ccc(S(C)(=O)=O)cc1-c1cc(C)ncc1C(=O)Nc1nc2ccc(-c3ccc(C#N)cc3)nc2s1 [Example 52, N-(5-(4-cyanophenyl)thiazolo[5,4-b]pyridin-2-yl)-4-(2-methoxy-5-(methylsulfonyl)phenyl)-6-methylnicotinamide] | 8.4
COc1ccc(C#N)cc1-c1cc(F)ncc1C(=O)Nc1nc2ccc(-c3ccc(C#N)cc3)nc2s1 [Example 39, 4-(5-cyano-2-methoxyphenyl)-N-(5-(4-cyanophenyl)thiazolo[5,4-b]pyridin-2-yl)-6-fluoronicotinamide] | 73
COc1ccc(C#N)cc1-c1cc(C)ncc1C(=O)Nc1nc2ccc(-c3ccc(C(=O)N4CCOCC4)cc3)nc2s1 [Example 84, 4-(5-cyano-2-methoxyphenyl)-6-methyl-N-(5-(4-(morpholine-4-carbonyl)phenyl)thiazolo[5,4-b]pyridin-2-yl)nicotinamide] | 49
CNC(=O)c1ccc(-c2ccc3nc(NC(=O)c4cnncc4-c4ccccc4OC)sc3n2)c(C)c1 [Example 134, 5-(2-methoxyphenyl)-N-(5-(2-methyl-4-(methylcarbamoyl)phenyl)thiazolo[5,4-b]pyridin-2-yl)pyridazine-4-carboxamide] | 15
COc1ccccc1-c1cc(C)ncc1C(=O)Nc1nc2ccc(-c3ccc(C#N)cc3)nc2s1 [Example 72, N-(5-(4-cyanophenyl)thiazolo[5,4-b]pyridin-2-yl)-4-(2-methoxyphenyl)-6-methylnicotinamide] | 59
COc1ccc(C#N)cc1-c1cc(Cl)ncc1C(=O)Nc1nc2ccc(-c3ccc(N4CCOCC4)cc3)nc2s1 [Example 58, 6-chloro-4-(5-cyano-2-methoxyphenyl)-N-(5-(4-morpholinophenyl)thiazolo[5,4-b]pyridin-2-yl)nicotinamide] | 101
COc1ccc(C#N)cc1-c1cc(C)ncc1C(=O)Nc1nc2ccc(-c3ccc(N4CCCC4=O)cc3)nc2s1 [Example 45, 4-(5-cyano-2-methoxyphenyl)-6-methyl-N-(5-(4-(2-oxopyrrolidin-1-yl)phenyl)thiazolo[5,4-b]pyridin-2-yl)nicotinamide] | 32
COc1ccccc1-c1cnncc1C(=O)Nc1nc2ccc(-c3ccc(S(C)(=O)=O)cc3)nc2s1 [Example 81, 5-(2-methoxyphenyl)-N-(5-(4-(methylsulfonyl)phenyl)thiazolo[5,4-b]pyridin-2-yl)pyridazine-4-carboxamide] | 7.7
COc1ccc(C#N)cc1-c1cc(C)ncc1C(=O)Nc1nc2ccc(-c3ccc(F)cc3)nc2s1 [Example 30, 4-(5-cyano-2-methoxyphenyl)-N-(5-(4-fluorophenyl)thiazolo[5,4-b]pyridin-2-yl)-6-methylnicotinamide] | 222
COc1ccc(C#N)cc1-c1cc(C)ncc1C(=O)Nc1nc2ccc(-c3ccc(CNC(C)=O)cc3)nc2s1 [Example 115, N-(5-(4-(acetamidomethyl)phenyl)thiazolo[5,4-b]pyridin-2-yl)-4-(5-cyano-2-methoxyphenyl)-6-methylnicotinamide] | 7.1

Further compounds by falling IC50, results first:

IC50 [nM] | SMILES
359 | COc1ccccc1-c1nc(C#N)ccc1C(=O)Nc1nc2ccc(-c3ccc(Cl)cc3)nc2s1 [Example 6, N-(5-(4-chlorophenyl)thiazolo[5,4-b]pyridin-2-yl)-6-cyano-2-(2-methoxyphenyl)nicotinamide]
99 | COc1ccccc1-c1cnncc1C(=O)Nc1nc2ccc(-c3ccn[nH]3)nc2s1 [Example 47, N-(5-(1H-pyrazol-5-yl)thiazolo[5,4-b]pyridin-2-yl)-5-(2-methoxyphenyl)pyridazine-4-carboxamide]
98 | COc1ccc(C#N)cc1-c1cc(C)ncc1C(=O)Nc1nc2ccc(-c3ccc(N4CCOCC4)cc3)nc2s1 [Example 59, 4-(5-cyano-2-methoxyphenyl)-6-methyl-N-(5-(4-morpholinophenyl)thiazolo[5,4-b]pyridin-2-yl)nicotinamide]
87 | COc1ccc(C#N)cc1-c1cc(C)ncc1C(=O)Nc1nc2ccc(-c3ccc(C(F)(F)F)cc3)nc2s1 [Example 40, 4-(5-cyano-2-methoxyphenyl)-6-methyl-N-(5-(4-(trifluoromethyl)phenyl)thiazolo[5,4-b]pyridin-2-yl)nicotinamide]
81 | COc1ccc(C#N)cc1-c1cc(C)ncc1C(=O)Nc1nc2ccc(-c3ccc(C(N)=O)cc3)nc2s1 [Example 21, N-(5-(4-carbamoylphenyl)thiazolo[5,4-b]pyridin-2-yl)-4-(5-cyano-2-methoxyphenyl)-6-methylnicotinamide]
64 | Cc1cc(-c2ccc(=O)n(C)c2)c(C(=O)Nc2nc3ccc(-c4ccc(C#N)cc4)nc3s2)cn1 [Example 54, N-(5-(4-cyanophenyl)thiazolo[5,4-b]pyridin-2-yl)-1,6′-dimethyl-6-oxo-1,6-dihydro-[3,4′-bipyridine]-3′-carboxamide]
62 | COc1ccc(C(F)(F)F)cc1-c1cc(C)ncc1C(=O)Nc1nc2ccc(-c3ccc(NC(C)=O)cc3)nc2s1 [Example 24, N-(5-(4-acetamidophenyl)thiazolo[5,4-b]pyridin-2-yl)-4-(2-methoxy-5-(trifluoromethyl)phenyl)-6-methylnicotinamide]
45 | COc1ccccc1-c1cnncc1C(=O)Nc1nc2ccc(Cc3ccc(Cl)cc3)nc2s1 [Example 69, N-(5-(4-chlorobenzyl)thiazolo[5,4-b]pyridin-2-yl)-5-(2-methoxyphenyl)pyridazine-4-carboxamide]
43 | COc1ccccc1-c1cnncc1C(=O)Nc1nc2ccc(-c3c(C)cc(Cl)cc3Cl)nc2s1 [Example 150, N-(5-(2,4-dichloro-6-methylphenyl)thiazolo[5,4-b]pyridin-2-yl)-5-(2-methoxyphenyl)pyridazine-4-carboxamide]
37 | COc1ccc(C#N)cc1-c1cc(C)ncc1C(=O)Nc1nc2ccc(-c3ccc(N4CCCC4=O)nc3)nc2s1 [Example 164, 4-(5-cyano-2-methoxyphenyl)-6-methyl-N-(5-(6-(2-oxopyrrolidin-1-yl)pyridin-3-yl)thiazolo[5,4-b]pyridin-2-yl)nicotinamide]
35 | COc1ccccc1-c1cnncc1C(=O)Nc1nc2ccc(Oc3ccc(Cl)c(F)c3)nc2s1 [Example 130, N-(5-(4-chloro-3-fluorophenoxy)thiazolo[5,4-b]pyridin-2-yl)-5-(2-methoxyphenyl)pyridazine-4-carboxamide]
29 | COc1ccccc1-c1cnncc1C(=O)Nc1nc2ccc(CCc3ccc(Cl)cn3)nc2s1 [Example 162, N-(5-(2-(5-chloropyridin-2-yl)ethyl)thiazolo[5,4-b]pyridin-2-yl)-5-(2-methoxyphenyl)pyridazine-4-carboxamide]
18 | COc1ccccc1-c1cnncc1C(=O)Nc1nc2ccc(-c3ccc(N4COCC4=O)cc3)nc2s1 [Example 149, 5-(2-methoxyphenyl)-N-(5-(4-(4-oxooxazolidin-3-yl)phenyl)thiazolo[5,4-b]pyridin-2-yl)pyridazine-4-carboxamide]
17 | COc1ccccc1-c1cnncc1C(=O)Nc1nc2ccc(OCC3CCCO3)nc2s1 (stereo not drawn) [Example 118, 5-(2-methoxyphenyl)-N-(5-((tetrahydrofuran-2-yl)methoxy)thiazolo[5,4-b]pyridin-2-yl)pyridazine-4-carboxamide]
16 | CCOc1ccc(C#N)cc1-c1cc(C)ncc1C(=O)Nc1nc2ccc(-c3ccc(C#N)cc3)nc2s1 [Example 105, 4-(5-cyano-2-ethoxyphenyl)-N-(5-(4-cyanophenyl)thiazolo[5,4-b]pyridin-2-yl)-6-methylnicotinamide]
15 | COc1ccc(C#N)cc1-c1cc(C)ncc1C(=O)Nc1nc2ccc(-c3ccc(NC(=O)C(C)C)c(C)c3)nc2s1 [Example 51, 4-(5-cyano-2-methoxyphenyl)-N-(5-(4-isobutyramido-3-methylphenyl)thiazolo[5,4-b]pyridin-2-yl)-6-methylnicotinamide]
11 | COc1ccc(C#N)cc1-c1cc(C)ncc1C(=O)Nc1nc2ccc(-c3ccc(NS(C)(=O)=O)cc3)nc2s1 [Example 18, 4-(5-cyano-2-methoxyphenyl)-6-methyl-N-(5-(4-(methylsulfonamido)phenyl)thiazolo[5,4-b]pyridin-2-yl)nicotinamide]
8.1 | COc1ccc(C#N)cc1-c1cc(C)ncc1C(=O)Nc1nc2ccc(-c3ccc(NC(C)=O)cc3)nc2s1 [Example 17, N-(5-(4-acetamidophenyl)thiazolo[5,4-b]pyridin-2-yl)-4-(5-cyano-2-methoxyphenyl)-6-methylnicotinamide]

Source: US20250026766A1, “Thiazolopyridyl Amide Derivatives as DNA Polymerase Theta Inhibitors” (BeiGene, Ltd., priority 2022, published 2025)
